Test [1] concerns MOLT-4. The test can be described thus: Cell viability assay (MTS) in MOLT-4 cells. The test is classed as cell-based. To be noted: Homo sapiens, MOLT-4. The procedure: (§1) Acute lymphoblastic leukemia cells (MOLT-4 and RS4; 11) were incubated with increasing concentrations of Bcl-xL degraders for 48 h. Cell viability was measured by tetrazolium-based MTS assay.
Test [2] has as its system RS4; 11. The test can be described thus: Cell viability assay (MTS) in RS4; 11 cells. Format: cell-based. Particulars: Homo sapiens, RS4-11. The procedure: as §1
Where [3] appears, read: Table 2, 48 hr, MTS, read-out: Anti-Cancer Activity IC50 (48 hr) MOLT-4.
The mark [4] stands for this setting: Table 2, 48 hr, MTS, read-out: Anti-Cancer Activity IC50 (48 hr) RS4, 11.
Setting [5] is: Table 2A, 48 hr, MTS, read-out: Anti-Cancer Activity IC50 (48 hr) MOLT-4.
[6] abbreviates: Table 2A, 48 hr, MTS, read-out: Anti-Cancer Activity IC50 (48 hr) RS4, 11.

From patent US20250154141A1 (University of Florida Research Foundation, Incorporated, priority 2021, published 2025) come the findings set out here.

Read-outs that look alike come from different tables or passages of the source. Bounds are passed on as bounds.

What is called IC50 is the midpoint of a concentration-inhibition curve. As for `Cc1ncsc1-c1ccc([C@H](C)NC(=O)[C@@H]2C[C@@H](O)CN2C(=O)[C@@H](NC(=O)CN2CCC(CN3CCN(CC4(C)CCC(c5ccc(Cl)cc5)=C(CN5CCN(c6ccc(C(=O)NS(=O)(=O)c7ccc(N[C@H](CCN8CCOCC8)CSc8ccccc8)c(S(=O)(=O)C(F)(F)F)c7)cc6)CC5)C4)CC3)CC2)C(C)(C)C)cc1` (stereo partly drawn) [Compound 16, (2S,4R)-1-((2S)-2-(2-(4-((4-((4′-chloro-4-methyl-6-((4-(4-(((4-(((R)-4-morpholino-1-(phenylthio)butan-2-yl)amino)-3-((trifluoromethyl)sulfonyl)phenyl)sulfonyl)carbamoyl)phenyl)piperazin-1-yl)methyl)-2,3,4,5-tetrahydro-[1,1′-biphenyl]-4-yl)methyl)piperazin-1-yl)methyl)piperidin-1-yl)acetamido)-3,3-dimethylbutanoyl)-4-hydroxy-N—((S)-1-(4-(4-methylthiazol-5-yl)phenyl)ethyl)pyrrolidine-2-carboxamide], the IC50 was less than 20 nM in test [1] (setting [3]); 12.7 nM in test [1] (Table 5, 48 h, read-out: MOLT-4 48 h IC50); 20 to 100 nM in test [2] (setting [4]); 42.8 nM in test [2] (Table 5, 48 h, read-out: RS4 48 h IC50).

`Cc1ncsc1-c1ccc([C@H](C)NC(=O)[C@@H]2C[C@@H](O)CN2C(=O)[C@@H](NC(=O)CCCCCCCNC(=O)c2ccc(N3CCN(C[C@]4(C)CCC(c5ccc(Cl)cc5)=C(CN5CCN(c6ccc(C(=O)NS(=O)(=O)c7ccc(N[C@H](CCN8C[C@H]9C[C@@H]8CO9)CSc8ccccc8)c(S(=O)(=O)C(F)(F)F)c7)cc6)CC5)C4)CC3)nc2)C(C)(C)C)cc1` [Compound 74]: the concentration for half-maximal inhibition (IC50) in test [1] (setting [3]) is less than 20 nM; in test [2] (setting [4]), 20 to 100 nM.

As to `Cc1ncsc1-c1ccc([C@H](C)NC(=O)[C@@H]2C[C@@H](O)CN2C(=O)[C@@H](NC(=O)CC2CCN(CC(=O)N3CCN(CC4(C)CCC(c5ccc(Cl)cc5)=C(CN5CCN(c6ccc(C(=O)NS(=O)(=O)c7ccc(N[C@H](CCN8CCOCC8)CSc8ccccc8)c(S(=O)(=O)C(F)(F)F)c7)cc6)CC5)C4)CC3)CC2)C(C)(C)C)cc1` (some centres unmarked) [Compound 27], the IC50 in test [1] (setting [3]) and in test [2] (setting [4]) was 100 to 500 nM throughout.

As to `Cc1ncsc1-c1ccc([C@H](C)NC(=O)[C@@H]2C[C@@H](O)CN2C(=O)[C@@H](NC(=O)CCCCCNC(=O)c2ccc(N3CCN(C[C@]4(C)CCC(c5ccc(Cl)cc5)=C(CN5CCN(c6ccc(C(=O)NS(=O)(=O)c7ccc(N[C@H](CCN8C[C@H]9C[C@@H]8CO9)CSc8ccccc8)c(S(=O)(=O)C(F)(F)F)c7)cc6)CC5)C4)CC3)nc2)C(C)(C)C)cc1` [Compound 72], the IC50 in test [1] (setting [3]) was less than 20 nM; in test [1] (Table 4, 48 h, read-out: MOLT-4 48 h IC50), 4.4 nM; in test [2] (setting [4]) it was less than 20 nM; in test [2] (Table 4, 48 h, read-out: RS4 48 h IC50), 7 nM.

On to `Cc1ncsc1-c1ccc([C@H](C)NC(=O)[C@@H]2C[C@@H](O)CN2C(=O)[C@@H](NC(=O)CCCCCCC(=O)N2CCN(CC3(C)CCC(c4ccc(Cl)cc4)=C(CN4CCN(c5ccc(C(=O)NS(=O)(=O)c6ccc(N[C@H](CCN(CCO)C7CC7)CSc7ccccc7)c([N+](=O)[O-])c6)cc5)CC4)C3)CC2)C(C)(C)C)cc1` (stereo partly drawn) [Compound 44, (2S,4R)-1-((2S)-2-(8-(4-((4′-chloro-6-((4-(4-(((4-(((R)-4-(cyclopropyl(2-hydroxyethyl)amino)-1-(phenylthio)butan-2-yl)amino)-3-nitrophenyl)sulfonyl)carbamoyl)phenyl)piperazin-1-yl)methyl)-4-methyl-2,3,4,5-tetrahydro-[1,1′-biphenyl]-4-yl)methyl)piperazin-1-yl)-8-oxooctanamido)-3,3-dimethylbutanoyl)-4-hydroxy-N—((S)-1-(4-(4-methylthiazol-5-yl)phenyl)ethyl)pyrrolidine-2-carboxamide], for which the IC50 in test [1] (setting [3]) was in the range of 100 to 500 nM; in test [2] (setting [4]), 20 to 100 nM.

On to `Cc1ncsc1-c1ccc([C@H](C)NC(=O)[C@@H]2C[C@@H](O)CN2C(=O)[C@@H](NC(=O)CCCCCCC(=O)N2CCN(C[C@]3(C)CCC(c4ccc(Cl)cc4)=C(CN4CCN(c5ccc(C(=O)NS(=O)(=O)c6ccc(N[C@H](CCN7CC8CCC7C8)CSc7ccccc7)c([N+](=O)[O-])c6)cc5)CC4)C3)CC2)C(C)(C)C)cc1` (stereo partly drawn) [Compound 53, (2S,4R)-1-((2S)-2-(8-(4-(((4R)-6-((4-(4-(((4-(((2R)-4-(2-azabicyclo[2.2.1]heptan-2-yl)-1-(phenylthio)butan-2-yl)amino)-3-nitrophenyl)sulfonyl)carbamoyl)phenyl)piperazin-1-yl)methyl)-4′-chloro-4-methyl-2,3,4,5-tetrahydro-[1,1′-biphenyl]-4-yl)methyl)piperazin-1-yl)-8-oxooctanamido)-3,3-dimethylbutanoyl)-4-hydroxy-N—((S)-1-(4-(4-methylthiazol-5-yl)phenyl)ethyl)pyrrolidine-2-carboxamide], for which the values for the IC50 in test [1] (setting [3]) and in test [2] (setting [4]) were 20 to 100 nM and less than 20 nM, respectively.

With `Cc1ncsc1-c1ccc([C@H](C)NC(=O)[C@@H]2C[C@@H](O)CN2C(=O)[C@@H](NC(=O)CC2CCN(CC(=O)N3CCN(C[C@]4(C)CCC(c5ccc(Cl)cc5)=C(CN5CCN(c6ccc(C(=O)NS(=O)(=O)c7ccc(N[C@H](CCN8CCCOCC8)CSc8ccccc8)c(S(=O)(=O)C(F)(F)F)c7)cc6)CC5)C4)CC3)CC2)C(C)(C)C)cc1` [Compound 75], the IC50 in test [1] (setting [3]) and in test [2] (setting [4]) was 20 to 100 nM each time.

Take `Cc1ncsc1-c1ccc([C@H](C)NC(=O)[C@@H]2C[C@@H](O)CN2C(=O)[C@@H](NC(=O)CCCCCCC(=O)N2CCN(C[C@]3(C)CCC(c4ccc(Cl)cc4)=C(CN4CCN(c5ccc(C(=O)NS(=O)(=O)c6ccc(N[C@H](CCN(C)CCO)CSc7ccccc7)c([N+](=O)[O-])c6)cc5)CC4)C3)CC2)C(C)(C)C)cc1` [Compound 42, (2S,4R)-1-((S)-2-(8-(4-(((R)-4′-chloro-6-((4-(4-(((4-(((R)-4-((2-hydroxyethyl)(methyl)amino)-1-(phenylthio)butan-2-yl)amino)-3-nitrophenyl)sulfonyl)carbamoyl)phenyl)piperazin-1-yl)methyl)-4-methyl-2,3,4,5-tetrahydro-[1,1′-biphenyl]-4-yl)methyl)piperazin-1-yl)-8-oxooctanamido)-3,3-dimethylbutanoyl)-4-hydroxy-N—((S)-1-(4-(4-methylthiazol-5-yl)phenyl)ethyl)pyrrolidine-2-carboxamide]: the 50% inhibitory concentration (IC50) in test [1] (setting [3]) was 20 to 100 nM; in test [2] (setting [4]) it was less than 20 nM.

With `Cc1ncsc1-c1ccc([C@H](C)NC(=O)[C@@H]2C[C@@H](O)CN2C(=O)[C@@H](NC(=O)CCCCC(=O)N2CCN(C3CCN(C[C@]4(C)CCC(c5ccc(Cl)cc5)=C(CN5CCN(c6ccc(C(=O)NS(=O)(=O)c7ccc(N[C@H](CCN8CCCOCC8)CSc8ccccc8)c(S(=O)(=O)C(F)(F)F)c7)cc6)CC5)C4)CC3)CC2)C(C)(C)C)cc1` [Compound 119], the IC50 in test [1] (setting [5]) and in test [2] (setting [6]) was less than 20 nM in each case.

For `Cc1ncsc1-c1ccc([C@H](C)NC(=O)[C@@H]2C[C@@H](O)CN2C(=O)[C@@H](NC(=O)CN2CCN(CCNC(=O)c3ccc(CN4CCN(C[C@]5(C)CCC(c6ccc(Cl)cc6)=C(CN6CCN(c7ccc(C(=O)NS(=O)(=O)c8ccc(N[C@H](CCN9CCCOCC9)CSc9ccccc9)c(S(=O)(=O)C(F)(F)F)c8)cc7)CC6)C5)CC4)nc3)CC2)C(C)(C)C)cc1` [Compound 114], the 50% inhibitory concentration (IC50) in test [1] (setting [5]) and in test [2] (setting [6]) was less than 20 nM each time.

As to `Cc1ncsc1-c1ccc([C@H](C)NC(=O)[C@@H]2C[C@@H](O)CN2C(=O)[C@@H](NC(=O)CCCCC(=O)N2CCC(C3CCN(C[C@]4(C)CCC(c5ccc(Cl)cc5)=C(CN5CCN(c6ccc(C(=O)NS(=O)(=O)c7ccc(N[C@H](CCN8CCCOCC8)CSc8ccccc8)c(S(=O)(=O)C(F)(F)F)c7)cc6)CC5)C4)CC3)CC2)C(C)(C)C)cc1` [Compound 116], the IC50 in test [1] (setting [5]) and in test [2] (setting [6]) was less than 20 nM in each case.

On to `Cc1ncsc1-c1ccc([C@H](C)NC(=O)[C@@H]2C[C@@H](O)CN2C(=O)[C@@H](NC(=O)CCCCCOCc2cn(CCCC(=O)NCC3(C)CCC(c4ccc(Cl)cc4)=C(CN4CCN(c5ccc(C(=O)NS(=O)(=O)c6ccc(N[C@H](CCN7CCOCC7)CSc7ccccc7)c(S(=O)(=O)C(F)(F)F)c6)cc5)CC4)C3)nn2)C(C)(C)C)cc1` (some centres unmarked) [Compound 22], for which the concentration for half-maximal inhibition (IC50) in test [1] (setting [3]) and in test [2] (setting [4]) was 100 to 500 nM in each case.

`Cc1ncsc1-c1ccc([C@H](C)NC(=O)[C@@H]2C[C@@H](O)CN2C(=O)[C@@H](NC(=O)CCCCCCC(=O)N2C(C)CN(C[C@]3(C)CCC(c4ccc(Cl)cc4)=C(CN4CCN(c5ccc(C(=O)NS(=O)(=O)c6ccc(N[C@H](CCN7CCCOCC7)CSc7ccccc7)c(S(=O)(=O)C(F)(F)F)c6)cc5)CC4)C3)CC2C)C(C)(C)C)cc1` (some centres unmarked) [compound 83]: the IC50 in test [1] (setting [3]) was 20 to 100 nM; in test [2] (setting [4]), 100 to 500 nM.

Take `Cc1ncsc1-c1ccc([C@H](C)NC(=O)[C@@H]2C[C@@H](O)CN2C(=O)[C@@H](NC(=O)CCCCCCC(=O)N2CCN(C[C@]3(C)CCC(c4ccc(Cl)cc4)=C(CN4CCN(c5ccc(C(=O)NS(=O)(=O)c6ccc(N[C@H](CCN7CCCCCC7)CSc7ccccc7)c(S(=O)(=O)C(F)(F)F)c6)cc5)CC4)C3)CC2)C(C)(C)C)cc1` [Compound 60, (2S,4R)-1-((S)-2-(8-(4-(((R)-6-((4-(4-(((4-(((R)-4-(azepan-1-yl)-1-(phenylthio)butan-2-yl)amino)-3-((trifluoromethyl)sulfonyl)phenyl)sulfonyl)carbamoyl)phenyl)piperazin-1-yl)methyl)-4′-chloro-4-methyl-2,3,4,5-tetrahydro-[1,1′-biphenyl]-4-yl)methyl)piperazin-1-yl)-8-oxooctanamido)-3,3-dimethylbutanoyl)-4-hydroxy-N—((S)-1-(4-(4-methylthiazol-5-yl)phenyl)ethyl)pyrrolidine-2-carboxamide]: the IC50 in test [1] (setting [3]) and in test [2] (setting [4]) was less than 20 nM throughout.
